We go through nine compounds from patent US10744127B2, “MDR-reversing 8-hydroxy-quinoline derivatives” (MAGYAR TUDOMÁNYOS AKADÉMIA TERMÉSZETTUDOMÁNYI KUTATÓKÖZPONT, priority 2016, dated 2020).

Like-named read-outs stand apart in the source and are kept apart here.

For series [1], the system named is MDCK II and MDCK II B1 cell lines. As to the kind of experiment: Selective toxicity towards MDCK II and MDCK II B1 cell lines. The settings on record: MDCK II versus MDCK II B1. The class given is cell-based, canine. Here is the method: (§1) Cell survival was measured by the PrestoBlue® Cell Viability Reagent (Life Technologies, USA). Cells were seeded in 100 μl medium at a density of 5000 cells/well in 96-well plates; the serially diluted drug was added the following day. Cells were then incubated for 72 hours at 37° C. in 5% CO2; the drug containing medium was removed, and the PrestoBlue® reagent was added according to the manufacturer's instructions. Fluorescence of the cells was measured by a Perkin Elmer EnSpire multimode plate reader or Perkin Elmer Victor X3 microplate reader. Data were background corrected and normalized to untreated cells. Curves were fitted with the help of Prism software using the sigmoidal dose-response model. Curve fit statistics were used to determine IC50 values. Differences between the IC50 values of the respective cell lines were analyzed by two-sided […] unpaired Student's t test and results were considered statistically significant at a P value of <0.05 (*) or 0.01 (**).
(§2) Data on selective toxicity (expressed as Selectivity Ratio, SR) in two MDR models engineered by retroviral transfection of P-glycoprotein (A431/A431-B1 and MDCK II/MDCK II B1 cell lines) are presented in Table 3 and Table 4.
(§3) A431 is a human epidermoid carcinoma cell line. Its derivative, the A431-B1 cell line expresses P-gp due to retroviral transfection of the mdr1 gene Türk, D. et al (Türk, D. et al., 2009). MDCK II is a canine kidney cell line. MDCK II B1 was created by inserting the mdr1 gene with transposons [Pape V F S et al. 2015] Both cell express P-gp stably, and show a stable MDR phenotype. Culture conditions were identical as in the case of MES-SA cells.

In series [2] the test system is A431 and A431-B1 cell lines. As to the kind of experiment: Selective toxicity in A431 and A431-B1 cell lines. The class given is cell-based, human. The settings on record: A431 versus P-gp-transfected A431-B1. As for the experimental part: as §1, §2, §3
Series [3] deals with MES-SA/Dx5 cell line. Kind of series: Cytotoxicity, PrestoBlue cell viability assay, MES-SA/Dx5. The class given is cell-based. The settings on record: Homo sapiens. Here is the method:
(§4) The human uterine sarcoma cell line MES-SA and its doxorubicin resistant counterpart MES-SA/Dx5 were obtained from ATCC (MES-SA: No. CRL-1976™, MES-SA-Dx5: No. CRL-1977™). MES-SA/Dx5 cells express high levels of P-gp, and therefore are multidrug resistant (MDR). Cells were cultured in DMEM supplemented with 10% FBS, 5 mmol/L glutamine and 50 unit/mL penicillin and streptomycin (Life Technologies).
as §1

Series [4] deals with MES-SA cell line. As to the kind of experiment: Cytotoxicity, PrestoBlue cell viability assay, parental MES-SA. The settings on record: Homo sapiens; parental MES-SA cell line (Table 2a). The format is cell-based. As for the experimental part: as §4, §1
Series [5] concerns MES-SA and multidrug-resistant MES-SA/Dx5 cell line. Kind of series: Selective toxicity (ratio of IC50 in MES-SA to IC50 in MES-SA/Dx5) and activity index. The class given is cell-based, human.
Text: Compounds having P-gp potentiated MDR-selective activity can be characterized by their inhibitory concentration (IC) with regard to a specific cancer cell line. Usually the IC value is given at a certain percentage ratio of non-inhibited molecules or surviving cells. For example an IC20 value of a compound on a cell line means that at this inhibitory concentration of the compound 80% of the cells are killed whereas 20% of the cells are still viable. A further characteristic of MDR-selective drugs is the selectivity ratio (SR), which is the ratio of the IC value measured in a non-multidrug resistant cell line to (i.e. divided by) the IC value measured in the corresponding transformed, multidrug-resistant cell line. The inverse value, the resistance ratio (RR) is calculated as the ratio of a compound's IC value against a multidrug resistant cell line divided by the parallel IC value of the same compound against a control non-multidrug resistant cell line. The Activity Index (AI) is calculated here as the ratio of the compound's selectivity ratio (SR) and the compound's IC50 value against the resistant cell. The AI reflects the level of simultaneous toxicity and selectivity towards multidrug-resistant cancer cells.
as §4, §1
Selectivity towards multidrug-resistant cells is expressed as the ratio of the IC50 value measured in the parental MES-SA and multidrug-resistant MES-SA/Dx5 cell line (Selectivity Ratio, SR).
A novel characteristic of the compounds presented in this invention is that they exert their selective cytotoxicity at low IC50 values. Simultaneous toxicity and selectivity towards multidrug-resistant cancer cells is reflected by the Activity Index (AI) of the compounds, which is the ratio of the selectivity ratio (SR) and the IC50 value on the resistant cell line.

In series [6] the test system is P-gp-expressing MES-SA/Dx5 cells. As to the kind of experiment: P-gp switch assay (Calcein AM). The settings on record: MES-SA/Dx5, single dose at IC20 (killing 80% of the cells), surviving population at 80% confluence, Calcein AM. The format is cell-based, human. Here is the method:
One million P-gp-expressing MES-SA/Dx5 cells were plated in a T25 cell culture flask. After 24 hours the compound of interest was added directly to the cells at a concentration corresponding to the IC20 value (killing 80% of the cells). After 5 days the culture media was removed, the cells were washed with PBS and the culture medium was exchanged. Cells were monitored daily and the recovery was recorded. The medium was changed every 5 days until the confluence of the cells reached 80%. At 80% confluence the cells were removed by gentle trypsinization, counted by an automated cell counter and stained with Calcein AM, a cellular dye able to detect the function of P-gp (Homolya 1993). P-gp-positivity was evaluated based on the ability of P-gp-expressing cells to extrude Calcein AM.

For series [7], the system named is MES-SA and MES-SA/Dx5 cells. As to the kind of experiment: Selective toxicity in the presence of the P-gp inhibitor tariquidar. The class given is cell-based, human. The settings on record: selectivity ratio in the presence of tariquidar (1 μM). Here is the method: In the presence of tariquidar (an inhibitor of P-gp function), the toxicity of the compounds selectively diminishes in multidrug-resistant MES-SA/Dx5 cells, while the toxicity is unchanged against parental MESSA cells, which is reflected by a decrease in the selectivity ratio (SR (TQ)).
To investigate the contribution of P-glycoprotein to the cytotoxic effect of a compound, cell survival was measured in the presence of the P-glycoprotein inhibitor tariquidar (1 μM). Tariquidar (CAS 206873-63-4) can be obtained e.g. from Selleck, Houston, USA.

Series [8] concerns MES-SA/Dx5 cells. Kind of series: Sensitivity of MES-SA/Dx5 cells to doxorubicin after a single treatment. The format is cell-based, human. The settings on record: after treatment with a single dose (FIG. 3). The source says:
The above treatment with compounds of the general Formula I results in a new, stable phenotype, with the complete resensitization of cells to conventional chemotherapy consisting of P-glycoprotein substrates such as doxorubicin (FIG. 3).
Curves show the sensitivity of MES-SA/Dx5 cells (P-gp overexpressing cell line established from MES-SA) to doxorubicin before and after treatment with a single dose of a state of the art compound (NSC693872) and two compounds relating to this invention (Example compounds No. 9 and No. 17). The sensitivity of MES-SA cells is shown as a reference (P-gp-negative parental cell line). […] (Values indicate the IC50 values (μM) derived from the cytotoxicity curves).

Setting [9] is: multidrug-resistant MES-SA/Dx5 cell line (Table 2a), read-out: IC50 (nM) in MES-SA/Dx5 cell line.
The mark [10] stands for this setting: MES-SA / MES-SA/Dx5, without tariquidar (Table 5).
The mark [11] stands for this setting: MES-SA/Dx5 (Table 2b), read-out: IC50 (μM) Dx5.
Setting [12] is: Mes-sa/Dx5 cell line, PrestoBlue assay, 72 hours (Table 1), read-out: IC50.

With `Cc1ccc2ccc(C3NCCc4sccc43)c(O)c2n1` (stereo not shown) [Example 20], in series [1], the “Selectivity Ratio (SR) (MDCK II/MDCK II B1)” value is reported as 10.0. In addition, in series [2], the “Selectivity Ratio (SR) (A431/A431-B1)” value came out at 13.2.
Take `C/C(=N\Nc1ccc2ccc(CN3CCCCC3)c(O)c2n1)c1ccccn1` [Example 3, (E/Z)-7-(Piperidin-1ylmethyl)-2-(2-(1-(pyridin-2-yl)ethylidene)hydrazinyl)quinolin-8-ol]: the melting point lay in the range of 69 to 71 °C. Besides, in series [3] (setting [9]), the IC50 is 727 nM. Besides, the IC50 in series [4] came out at 11300 nM. In addition, the SR in [5] (setting [10]) turned out to be 16.2. Moreover, in [1], the “Selectivity Ratio (SR) (MDCK II/MDCK II B1)” value came out at 9.5. Moreover, in [6], the “Fraction of P-gp-negative cells (P3) in the population” value is listed as 88.6% and the “Fraction of P-gp-positive cells (P4) in the population” value is recorded as 11.40%. For the same compound, in [2], the “Selectivity Ratio (SR) (A431/A431-B1)” value was determined as 14.4. Also, the “SR (TQ)” value in series [7] came to 1.5.
As for `Oc1c(C2NCCc3sccc32)cc(Cl)c2cccnc12` (stereo not shown) [Example 17, 5-Chloro-7-(4,5,6,7-tetrahydrothieno[3,2-c]pyridin-4-yl)quinolin-8-ol], in series [8], the “Resensitization of MES-SA/Dx5 cells to doxorubicin” value is given as “sufficient to resensitize MES-SA/Dx5 cells to doxorubicin”. Further, the “Selectivity Ratio (SR) (A431/A431-B1)” value in [2] was 12.6.
For the compound `COc1ccc(CNCc2cc([N+](=O)[O-])c3cccnc3c2O)cc1OC` [Example 30, 7-(((3,4-Dimethoxybenzyl)amino)methyl)-5-nitroquinolin-8-ol], the melting point lay within 204 to 206 °C. The IC50 in [3] (setting [9]) was found to be 1220 nM. Moreover, the IC50 in series [4] came to 23800 nM. Also, the SR in series [5] (setting [10]) is given as 19.3. In addition, the “Selectivity Ratio (SR) (MDCK II/MDCK II B1)” value in [1] is on record as 16.1. Besides, in [2], the “Selectivity Ratio (SR) (A431/A431-B1)” value is given as 11.5. Also, in [7], the “SR (TQ)” value was determined as 1.3.
Consider `COc1ccc(CNCc2cc(Br)c3cccnc3c2O)cc1OC` [Example 25, 5-Bromo-7-(((3,4-dimethoxybenzyl)amino)methyl)quinolin-8-ol], for which the melting point lay within 133 to 136 °C. Also, the IC50 in series [3] (setting [11]) worked out at 130 nM. For the same compound, the IC50 in series [3] (setting [12]) was found to be 131 nM. Moreover, in series [3] (setting [9]), the IC50 was found to be 131 nM. For the same compound, in [4], the IC50 came out at 2910 nM. The SR in series [5] (MES-SA / MES-SA/Dx5 (Table 2b)) stood at 22.3. Besides, in [5] (setting [10]), the SR came to 22.3. Also, the “Selectivity Ratio (SR) (MDCK II/MDCK II B1)” value in series [1] was 9.4. For the same compound, in series [6], the “Fraction of P-gp-negative cells (P3) in the population” value is recorded as 92.30% and the “Fraction of P-gp-positive cells (P4) in the population” value was 7.70%. Moreover, the “SR (TQ)” value in [7] was 1.6.
The compound `COc1ccc(CNCc2cc([N+](=O)[O-])c3cccnc3c2O)cc1` [Example 27, 7-(((4-Methoxybenzyl)amino)methyl)-5-nitroquinolin-8-ol] gave a melting point of 191 to 193 °C. Also, in series [3] (setting [11]), the IC50 worked out at 310 nM. Moreover, in series [3] (setting [9]), the IC50 is 310 nM. In addition, the IC50 in series [4] was found to be 6090 nM. In addition, the SR in series [5] (MES-SA / MES-SA/Dx5 (Table 2b)) was determined as 19.9. Besides, the SR in series [5] (setting [10]) is 19.9. Further, the “Selectivity Ratio (SR) (MDCK II/MDCK II B1)” value in [1] was found to be 8.0. The “Selectivity Ratio (SR) (A431/A431-B1)” value in [2] is 12.6. Besides, in series [7], the “SR (TQ)” value is given as 1.6.
On to `COc1ccc(CNCc2cc(Cl)c3cccnc3c2O)c(OC)c1` [Example 26, 5-Chloro-7-(((2,4-dimethoxybenzyl)amino)methyl)quinolin-8-ol], for which the melting point was 136 to 139 °C. Also, in series [3] (setting [11]), the IC50 was 130 nM. Also, the IC50 in series [3] (setting [12]) is 133 nM. Also, the IC50 in series [3] (setting [9]) was determined as 130 nM. The IC50 in series [4] amounted to 2260 nM. For the same compound, in series [5] (MES-SA / MES-SA/Dx5 (Table 2b)), the SR is on record as 17.6. For the same compound, in series [5] (setting [10]), the SR was 17.6. The “Selectivity Ratio (SR) (MDCK II/MDCK II B1)” value in series [1] came to 8.0. For the same compound, in [2], the “Selectivity Ratio (SR) (A431/A431-B1)” value amounted to 11.2. In addition, in [7], the “SR (TQ)” value was determined as 1.7.
Turning to `COc1ccc(CNCc2cc(S(C)(=O)=O)c3cccnc3c2O)c(OC)c1` [Example 37, 7-(((2,4-Dimethoxybenzyl)amino)methyl)-5-(methylsulfonyl)quinolin-8-ol], in series [1], the “Selectivity Ratio (SR) (MDCK II/MDCK II B1)” value came to 8.9. The “Selectivity Ratio (SR) (A431/A431-B1)” value in series [2] was 16.7.
For `COc1ccccc1CNCc1cc([N+](=O)[O-])c2cccnc2c1O` [Example 29, 7-(((2-Methoxybenzyl)amino)methyl)-5-nitroquinolin-8-ol], the melting point lay within 199 to 203 °C. Further, in series [3] (setting [9]), the IC50 amounted to 2090 nM. For the same compound, the IC50 in [4] was found to be 40600 nM. In series [5] (IC50 in MES-SA divided by IC50 in MES-SA/Dx5 (Table 2a)), the “Selectivity Ratio (SR)” value is 19.2. For the same compound, the “Selectivity Ratio (SR) (MDCK II/MDCK II B1)” value in [1] is 17.1. Moreover, the “Selectivity Ratio (SR) (A431/A431-B1)” value in series [2] is given as 25.1.
